ChEMBL document CHEMBL5113408, “Design, synthesis and antitumour activity of novel 5(6)-amino-benzimidazolequinones containing a fused morpholine” (Eur J Med Chem, 2022)

How the values were obtained:
Assay type in all cases: functional, cell-based
[1] = tested on: MCF7; assay: Antiproliferative activity against human MCF7 cells assessed as inhibition of cell growth by SRB assay
[2] = tested on: HeLa; assay: Antiproliferative activity against human HeLa cells assessed as inhibition of cell growth by SRB assay
[3] = tested on: ECa-109 cell line; assay: Antiproliferative activity against human EC109 cells assessed as inhibition of cell growth by SRB assay
[4] = tested on: MGC-803; assay: Antiproliferative activity against human MGC-803 cells assessed as inhibition of cell growth by SRB assay

Compound	IC50 [1]	IC50 [2]	IC50 [3]	IC50 [4]
COc1ccccc1NC1=CC(=O)c2nc3n(c2C1=O)C[C@@H]([C@H](O)CO)OC3	> 16 µM	6.42 µM	> 16 µM	6.61 µM
CCc1ccc(NC2=CC(=O)c3c(nc4n3[C@H]3OC[C@@H](O)[C@H]3OC4)C2=O)cc1	8.99 µM	6.51 µM	> 4 µM	1.11 µM
O=C1C=C(Nc2ccccc2)C(=O)c2c1nc1n2C[C@@H]([C@H](O)CO)OC1	> 16 µM	6.06 µM	> 16 µM	8.07 µM
O=C1C(Nc2cccc(Cl)c2)=CC(=O)c2c1nc1n2C[C@@H]([C@H](O)CO)OC1	5.77 µM	13.8 µM	5.99 µM	2.89 µM
O=C1C=C(NC2CC2)C(=O)c2c1nc1n2C[C@@H]([C@H](O)CO)OC1	> 16 µM	> 16 µM	> 16 µM	> 16 µM
CCOc1ccccc1NC1=CC(=O)c2nc3n(c2C1=O)[C@H]1OC[C@@H](O)[C@H]1OC3	> 4 µM	6.04 µM	4.63 µM	2.45 µM
O=C1C(Nc2ccc(Br)cc2)=CC(=O)c2c1nc1n2[C@H]2OC[C@@H](O)[C@H]2OC1	4.33 µM	5.22 µM	1.98 µM	2.02 µM
COc1ccccc1NC1=CC(=O)c2nc3n(c2C1=O)[C@H]1OC[C@@H](O)[C@H]1OC3	> 4 µM	2.95 µM	> 4 µM	1.63 µM
COc1cccc(NC2=CC(=O)c3nc4n(c3C2=O)[C@H]2OC[C@@H](O)[C@H]2OC4)c1	> 4 µM	4.28 µM	7.62 µM	1.78 µM
O=C1C(Nc2ccccc2F)=CC(=O)c2c1nc1n2[C@H]2OC[C@@H](O)[C@H]2OC1	> 4 µM	9.82 µM	2.66 µM	2 µM
Cc1ccc(NC2=CC(=O)c3c(nc4n3[C@H]3OC[C@@H](O)[C@H]3OC4)C2=O)cc1C	4.95 µM	4.32 µM	4.09 µM	1.05 µM
O=C1C=C(Nc2ccc(Br)cc2)C(=O)c2c1nc1n2C[C@@H]([C@H](O)CO)OC1	6.13 µM	4.22 µM	8.25 µM	2.75 µM
O=C1C=C(N2CCCC2)C(=O)c2c1nc1n2[C@H]2OC[C@@H](O)[C@H]2OC1	> 16 µM	> 16 µM	> 16 µM	> 16 µM
O=C1C(N2CCC2)=CC(=O)c2c1nc1n2[C@H]2OC[C@@H](O)[C@H]2OC1	> 16 µM	> 16 µM	> 16 µM	> 16 µM
Cc1ccc(NC2=CC(=O)c3c(nc4n3C[C@@H]([C@H](O)CO)OC4)C2=O)cc1C	> 16 µM	10.1 µM	> 16 µM	5.46 µM
CCOc1ccc(NC2=CC(=O)c3c(nc4n3C[C@@H]([C@H](O)CO)OC4)C2=O)cc1	8.63 µM	7.49 µM	7.84 µM	3.46 µM
COc1ccc(NC2=CC(=O)c3nc4n(c3C2=O)[C@H]2OC[C@@H](O)[C@H]2OC4)cc1	5.42 µM	4.78 µM	> 4 µM	1.68 µM
COc1ccc(NC2=CC(=O)c3c(nc4n3[C@H]3OC[C@@H](O)[C@H]3OC4)C2=O)cc1	4.47 µM	> 8 µM	3.41 µM	2.15 µM
O=C1C=C(Nc2ccc(Br)cc2)C(=O)c2c1nc1n2[C@H]2OC[C@@H](O)[C@H]2OC1	2.58 µM	3.83 µM	2.85 µM	1.01 µM
CCCc1ccc(NC2=CC(=O)c3c(nc4n3C[C@@H]([C@H](O)CO)OC4)C2=O)cc1	9.44 µM	6.17 µM	5.12 µM	4.63 µM
COc1ccc(NC2=CC(=O)c3c(nc4n3C[C@@H]([C@H](O)CO)OC4)C2=O)cc1	11.4 µM	8.19 µM	10.8 µM	6.76 µM
O=C1C=C(N2CCC2)C(=O)c2c1nc1n2[C@H]2OC[C@@H](O)[C@H]2OC1	> 16 µM	> 16 µM	> 16 µM	> 16 µM
O=C1C=C(Nc2ccc(I)cc2)C(=O)c2c1nc1n2C[C@@H]([C@H](O)CO)OC1	7.69 µM	3.61 µM	5.78 µM	3.25 µM
O=C1C=C(Nc2ccc(C(F)(F)F)cc2)C(=O)c2c1nc1n2[C@H]2OC[C@@H](O)[C@H]2OC1	> 4 µM	> 8 µM	5.5 µM	2.82 µM
CN(C)C1=CC(=O)c2c(nc3n2[C@H]2OC[C@@H](O)[C@H]2OC3)C1=O	> 16 µM	> 16 µM	–	> 16 µM
O=c1[nH]cc(F)c(=O)[nH]1 [FLUOROURACIL]	–	24.3 µM	11.4 µM	10.3 µM

Compound	IC50 [1]	IC50 [2]	IC50 [3]	IC50 [4]
O=C1C(Nc2cccc(F)c2)=CC(=O)c2c1nc1n2[C@H]2OC[C@@H](O)[C@H]2OC1	> 4 µM	> 8 µM	2.37 µM	1.47 µM
CCCN(CCC)C1=CC(=O)c2nc3n(c2C1=O)[C@H]1OC[C@@H](O)[C@H]1OC3	> 16 µM	> 16 µM	> 16 µM	> 16 µM
O=C1C(N2CCCCC2)=CC(=O)c2c1nc1n2[C@H]2OC[C@@H](O)[C@H]2OC1	> 8 µM	> 16 µM	> 8 µM	> 4 µM
O=C1C=C(Nc2ccccc2F)C(=O)c2c1nc1n2C[C@@H]([C@H](O)CO)OC1	9.17 µM	5.86 µM	7.88 µM	3.24 µM
O=C1C(NC2CCCC2)=CC(=O)c2c1nc1n2[C@H]2OC[C@@H](O)[C@H]2OC1	> 16 µM	> 16 µM	> 16 µM	> 16 µM
O=C1C=C(Nc2cccc(Cl)c2)C(=O)c2c1nc1n2C[C@@H]([C@H](O)CO)OC1	9.4 µM	4.06 µM	11.3 µM	5.27 µM
O=C1C=C(Nc2cccc(F)c2)C(=O)c2c1nc1n2C[C@@H]([C@H](O)CO)OC1	> 16 µM	6.59 µM	7.93 µM	4.46 µM
O=C1C=C(Nc2cccc(Cl)c2)C(=O)c2c1nc1n2[C@H]2OC[C@@H](O)[C@H]2OC1	4.72 µM	6.04 µM	4.69 µM	1.77 µM
O=C1C(NC2CC2)=CC(=O)c2c1nc1n2C[C@@H]([C@H](O)CO)OC1	> 16 µM	> 16 µM	> 16 µM	> 16 µM
O=C1C(NCc2ccccc2)=CC(=O)c2c1nc1n2[C@H]2OC[C@@H](O)[C@H]2OC1	> 8 µM	11 µM	> 8 µM	3.49 µM
CCCc1ccc(NC2=CC(=O)c3nc4n(c3C2=O)C[C@@H]([C@H](O)CO)OC4)cc1	5.94 µM	3.29 µM	6.88 µM	3.67 µM
CCCc1ccc(NC2=CC(=O)c3nc4n(c3C2=O)[C@H]2OC[C@@H](O)[C@H]2OC4)cc1	4.66 µM	4.99 µM	> 4 µM	1.56 µM
O=C1C=C(Nc2cccc(F)c2)C(=O)c2c1nc1n2[C@H]2OC[C@@H](O)[C@H]2OC1	5.5 µM	6.44 µM	7.03 µM	2.18 µM
Cc1ccc(NC2=CC(=O)c3nc4n(c3C2=O)C[C@@H]([C@H](O)CO)OC4)cc1C	6.26 µM	4.5 µM	6.74 µM	2.59 µM
O=C1C(N2CCOCC2)=CC(=O)c2c1nc1n2[C@H]2OC[C@@H](O)[C@H]2OC1	> 16 µM	> 16 µM	–	> 4 µM
O=C1C(Nc2ccc(I)cc2)=CC(=O)c2c1nc1n2[C@H]2OC[C@@H](O)[C@H]2OC1	3.89 µM	4.01 µM	2.53 µM	2.15 µM
COc1cccc(NC2=CC(=O)c3c(nc4n3C[C@@H]([C@H](O)CO)OC4)C2=O)c1	6.61 µM	6.14 µM	6.95 µM	3.58 µM
O=C1C(Nc2ccc(Br)cc2)=CC(=O)c2c1nc1n2C[C@@H]([C@H](O)CO)OC1	5.01 µM	7.89 µM	3.56 µM	2.78 µM
O=C1C=C(NCc2ccccc2)C(=O)c2c1nc1n2[C@H]2OC[C@@H](O)[C@H]2OC1	> 8 µM	> 8 µM	> 8 µM	2.67 µM
O=C1C(Nc2ccc(C(F)(F)F)cc2)=CC(=O)c2c1nc1n2C[C@@H]([C@H](O)CO)OC1	4.28 µM	7.18 µM	4.03 µM	2.02 µM
Cc1ccc(NC2=CC(=O)c3c(nc4n3[C@H]3OC[C@@H](O)[C@H]3OC4)C2=O)cc1	> 4 µM	6.59 µM	> 4 µM	1.55 µM
CCc1ccc(NC2=CC(=O)c3nc4n(c3C2=O)C[C@@H]([C@H](O)CO)OC4)cc1	6.73 µM	2.41 µM	4.87 µM	2.86 µM
O=C1C=C(N2CCCCC2)C(=O)c2c1nc1n2[C@H]2OC[C@@H](O)[C@H]2OC1	> 8 µM	> 16 µM	> 8 µM	> 8 µM
CCOc1ccc(NC2=CC(=O)c3c(nc4n3[C@H]3OC[C@@H](O)[C@H]3OC4)C2=O)cc1	> 4 µM	14.4 µM	> 4 µM	2.09 µM
O=C1C(NC2CC2)=CC(=O)c2c1nc1n2[C@H]2OC[C@@H](O)[C@H]2OC1	> 16 µM	> 16 µM	–	> 4 µM
CCN(CC)C1=CC(=O)c2c(nc3n2[C@H]2OC[C@@H](O)[C@H]2OC3)C1=O	> 16 µM	> 16 µM	–	> 16 µM
